Source: ChEMBL document CHEMBL5214991, “Discovery of 4-methyl-3-(pyridin-2-ylamino)benzamide derivatives as C-Abl inhibitors with potential neuroprotective effect” (Bioorg Med Chem, 2022)
The source made the active and inactive calls. No cut-off for these calls is given here.

Legend:
[1] = Cytotoxicity against human SH-SY5Y cells incubated for 48 hrs and measured by MTT assay; format: toxicity, cell-based
[2] = Cytotoxicity against rat H9c2 cells incubated for 48 hrs and measured by MTT assay; format: toxicity, cell-based
[3] = Cytotoxicity against HEK293 cells incubated for 48 hrs and measured by MTT assay; format: toxicity, cell-based; details: human
[4] = Cytotoxicity against human L02 cells incubated for 48 hrs and measured by MTT assay; format: toxicity, cell-based
SH-SY5Y [5] = test: Neuroprotective activity against MPP+-induced cell death in human SH-SY5Y cells assessed as increase in cell viability at 0.08 to 20 uM measured after 48 hrs by propidium iodide staining method; format: functional, cell-based; details: dose 0.08-20 µM
SH-SY5Y [6] = test: Neuroprotective activity against MPP+-induced cell death in human SH-SY5Y cells assessed as reduction in apoptosis at 1.25 to 5 uM measured after 48 hrs by propidium iodide staining method; format: functional, cell-based; details: dose 1.25-5 µM
[7] = AUC (0 to t) in male Sprague-Dawley rat at 5 mg/kg, iv measured by LC-MS/MS analysis; format: ADME, organism-based; parameters: dose 5 mg/kg, route iv; details: in vivo
[8] = AUC (0 to infinity) in male Sprague-Dawley rat at 5 mg/kg, iv measured by LC-MS/MS analysis; format: ADME, organism-based; parameters: time infinity, dose 5 mg/kg, route iv; details: in vivo
[9] = MRT (0 to t) in male Sprague-Dawley rat at 5 mg/kg, iv measured by LC-MS/MS analysis; format: ADME, organism-based; details: in vivo
[10] = MRT (0 to infinity) in male Sprague-Dawley rat at 5 mg/kg, iv measured by LC-MS/MS analysis; format: ADME, organism-based; details: in vivo
[11] = Half-life in male Sprague-Dawley rat at 5 mg/kg, iv measured by LC-MS/MS analysis; format: ADME, organism-based; details: in vivo
[12] = Clearance in male Sprague-Dawley rat at 5 mg/kg, iv measured by LC-MS/MS analysis; format: ADME, organism-based; details: in vivo
[13] = Volume of distribution at steady state in male Sprague-Dawley rat at 5 mg/kg, iv measured by LC-MS/MS analysis; format: ADME, organism-based; details: in vivo, read-out: Vdss
[14] = AUC (0 to t) in male Sprague-Dawley rat at 20 mg/kg, po measured by LC-MS/MS analysis; format: ADME, organism-based; parameters: dose 20 mg/kg, route po; details: in vivo
[15] = AUC (0 to infinity) in male Sprague-Dawley rat at 20 mg/kg, po measured by LC-MS/MS analysis; format: ADME, organism-based; parameters: time infinity, dose 20 mg/kg, route po; details: in vivo
[16] = MRT (0 to t) in male Sprague-Dawley rat at 20 mg/kg, po measured by LC-MS/MS analysis; format: ADME, organism-based; details: in vivo
[17] = MRT (0 to infinity) in male Sprague-Dawley rat at 20 mg/kg, po measured by LC-MS/MS analysis; format: ADME, organism-based; details: in vivo
[18] = Half-life in male Sprague-Dawley rat at 20 mg/kg, po measured by LC-MS/MS analysis; format: ADME, organism-based; details: in vivo
[19] = Tmax in male Sprague-Dawley rat at 20 mg/kg, po measured by LC-MS/MS analysis; format: ADME, organism-based; details: in vivo
[20] = Cmax in male Sprague-Dawley rat at 20 mg/kg, po measured by LC-MS/MS analysis; format: ADME, organism-based; parameters: dose 20 mg/kg, route po; details: in vivo
[21] = Oral bioavailability in male Sprague-Dawley rat at 20 mg/kg measured by LC-MS/MS analysis; format: ADME, organism-based; details: in vivo
[22] = Ratio of drug concentration in brain to plasma in male Sprague-Dawley rat at […], iv measured by LC-MS/MS analysis; format: ADME, organism-based; details: dose 5 mg/kg, read-out: BPR

SMILES: Cc1ccc(C(=O)Nc2cc(-c3cnn(C)c3)cc(C(F)(F)F)c2)cc1Nc1cc(-c2cccnc2)ccn1
- IC50 at 48 h [1]: > 80 µM
- IC50 at 48 h [2]: > 80 µM
- IC50 at 48 h [3]: > 80 µM
- IC50 at 48 h [4]: > 80 µM
- Activity (SH-SY5Y [5]): Active
- Activity (SH-SY5Y [6]): Active
- AUC(0-t) [7]: 5120 ng·h/mL
- AUC(0-inf) [8]: 5200 ng·h/mL
- MRT last [9]: 5.29 h
- MRT inf [10]: 5.29 h
- half-life [11]: 3.62 h
- clearance [12]: 17.7 mL/min/kg
- Vd [13]: 5.36 L/kg
- AUC(0-t) [14]: 9890 ng·h/mL
- AUC(0-inf) [15]: 9900 ng·h/mL
- MRT last [16]: 5.9 h
- MRT inf [17]: 5.93 h
- half-life [18]: 3.54 h
- Tmax [19]: 2.33 h
- Cmax [20]: 1380 ng/mL
- bioavailability [21]: 47.6%
- Kp [22]: 4

SMILES: Cc1ccc(C(=O)Nc2ccc(CN3CCN(C)CC3)c(C(F)(F)F)c2)cc1Nc1cc(-c2cncnc2)ccn1
- IC50 at 48 h [1]: 12 µM
- IC50 at 48 h [2]: 16.7 µM
- IC50 at 48 h [3]: 17.1 µM
- IC50 at 48 h [4]: 30.1 µM
- Activity (SH-SY5Y [5]): Active

SMILES: Cc1cn(-c2cc(NC(=O)c3ccc(C)c(Nc4nccc(-c5cccnc5)n4)c3)cc(C(F)(F)F)c2)cn1 [NILOTINIB]
- IC50 at 48 h [1]: 38.5 µM
- IC50 at 48 h [2]: 21.3 µM
- IC50 at 48 h [3]: 8.4 µM
- IC50 at 48 h [4]: 40.4 µM
- Activity (SH-SY5Y [5]): Active
- bioavailability [21]: 27.1%

SMILES: Cc1ccc(C(=O)Nc2cc(-c3cnn(C)c3)cc(C(F)(F)F)c2)cc1Nc1cc(-c2cncnc2)ccn1
- IC50 at 48 h [1]: > 80 µM
- IC50 at 48 h [2]: > 80 µM
- IC50 at 48 h [3]: > 80 µM
- IC50 at 48 h [4]: > 80 µM
- Activity (SH-SY5Y [5]): Active

SMILES: Cc1cn(-c2cc(NC(=O)c3ccc(C)c(Nc4cc(-c5cccnc5)ccn4)c3)cc(C(F)(F)F)c2)cn1
- IC50 at 48 h [1]: > 80 µM
- IC50 at 48 h [2]: > 80 µM
- IC50 at 48 h [3]: > 80 µM
- IC50 at 48 h [4]: > 80 µM
- Activity (SH-SY5Y [5]): Active

SMILES: Cc1ccc(C(=O)Nc2ccc(CN3CCN(C)CC3)c(C(F)(F)F)c2)cc1Nc1cc(-c2cccnc2)ccn1
- IC50 at 48 h [1]: 19 µM
- IC50 at 48 h [2]: 9.12 µM
- IC50 at 48 h [3]: 14 µM
- IC50 at 48 h [4]: 37.4 µM
- Activity (SH-SY5Y [5]): Active
